Test results published in patent US9101635B2 (priority 2009, dated 2015).
Read-outs that look alike come from different tables or passages of the source.

How the values were obtained:
[1] = molecular target: VSV-G (Vesicular stomatitis Indiana virus, UniProt P03522); format: cell-based; settings: pH 5
[2] = test system: EBOV Δmucin GP; format: cell-based; settings: pH 5
[3] = test system: HIV/EBOV-GP pseudotype virus; test: microbe, parasite or virus in culture; format: cell-based, EBOV Zaire strain; settings: for inhibition at 25 µM: read-out: Inhibition of pseudotype virus at 25 μM in 293T cells (%) HIV/EBOV-GP
[4] = test system: recombinant Zaire EBOV expressing green fluorescent protein (GFP-ZEBOV); test: microbe, parasite or virus in culture; format: cell-based, EBOV (Zaire subtype, 1995 strain)
[5] = test system: HIV/VSV-G pseudotype virus; test: microbe, parasite or virus in culture; format: cell-based, vesicular stomatitis virus; settings: for inhibition at 25 µM: Human immunodeficiency virus 1, HEK-293T, read-out: Inhibition of pseudotype virus at 25 μM in 293T cells (%) HIV/VSV-GP
[6] = in vitro; settings: African green monkey
[7] = in vitro; settings: human
[8] = test system: HIV/EBOV-GP pseudotype virus; format: cell-based, EBOV Zaire strain
[9] = test system: HIV/MARV-GP pseudotype virus; test: microbe, parasite or virus in culture; format: cell-based, MARV (Lake Victoria strain)
[10] = test system: HIV/LASV-GP pseudotype virus; test: microbe, parasite or virus in culture; format: cell-based, Lassa virus (LASV)
[11] = test system: HIV/HA(H5) pseudotype virus; test: microbe, parasite or virus in culture; format: cell-based, influenza virus subtype H5
[12] = test system: 293T cells
[13] = test system: HIV/VSV-G pseudotype virus; format: cell-based, vesicular stomatitis virus
[14] = test system: HIV/EBOV-GP pseudotype virus; format: cell-based, EBOV Zaire strain; remark: listed apart in the source
[15] = test system: EboZ replication; settings: read-out: IC50, EboZ replication in vitro; cited from earlier work
[16] = test system: HIV/EBOV-GP pseudotype virus; test: microbe, parasite or virus in culture; format: cell-based, EBOV Zaire strain; settings: Human immunodeficiency virus 1, HEK-293T
[17] = test system: Vero E6 cells; settings: African green monkey
[18] = Human immunodeficiency virus 1, HEK-293T, read-out: HIV/EBOV-Gp IC90 (μM)
[19] = Human immunodeficiency virus 1, HEK-293T, read-out: IC90 (μM) against HIV/EBOV-GP
[20] = Human immunodeficiency virus 1, HEK-293T
[21] = Zaire ebolavirus, Vero C1008, 48 h, read-out: GFP-ZEBOV IC50 (μM)
[22] = Zaire ebolavirus, Vero C1008, 48 h, read-out: GFP-ZEBOV IC90 (μM)
[23] = read-out: inhibition of infection, Assay 4: compounds pre-incubated with 293T cells at 4° C. before virus
[24] = read-out: inhibition of HIV/EBOV-GP infection, Assay 3: compounds pre-incubated with the virus for 1 hour at 37° C.
[25] = Human immunodeficiency virus 1, HEK-293T, read-out: HIV/EBOV-GP IC90 (μM)
[26] = Human immunodeficiency virus 1, read-out: HIV/MARV-GP IC90 (μM)
[27] = Zaire ebolavirus, Vero C1008, read-out: Infectious EBOV IC50 (μM)
[28] = Human immunodeficiency virus 1, read-out: HIV/LASV-GP IC90 (μM)
[29] = Human immunodeficiency virus 1, read-out: HIV/HA (H5) IC90 (μM)

Sequence of VSV-G (P03522 17-511 limits assumed): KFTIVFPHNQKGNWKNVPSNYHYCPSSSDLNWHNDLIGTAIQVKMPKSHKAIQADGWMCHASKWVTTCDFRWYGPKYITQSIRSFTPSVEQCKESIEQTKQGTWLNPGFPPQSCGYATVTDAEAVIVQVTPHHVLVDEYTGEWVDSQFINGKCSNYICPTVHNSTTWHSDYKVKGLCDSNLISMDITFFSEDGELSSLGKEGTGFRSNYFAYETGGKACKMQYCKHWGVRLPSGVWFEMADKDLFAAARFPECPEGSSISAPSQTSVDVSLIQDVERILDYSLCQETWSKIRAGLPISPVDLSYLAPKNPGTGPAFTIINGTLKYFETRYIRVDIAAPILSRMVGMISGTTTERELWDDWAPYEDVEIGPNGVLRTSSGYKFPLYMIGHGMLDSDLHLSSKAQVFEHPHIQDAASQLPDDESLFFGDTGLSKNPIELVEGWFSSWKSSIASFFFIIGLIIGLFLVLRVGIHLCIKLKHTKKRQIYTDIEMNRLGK

Bafilomycin
inhibition of cell-cell fusion, VSV-G expressing cells [1]: completely inhibited
inhibition of cell-cell fusion, EBOV expressing cells [2]: completely inhibited

O=C(Nc1ccc(Cl)c(Cl)c1)c1ccc([N+](=O)[O-])o1 [E]
IC90 [3, 18]: 20.8 µM
IC90 [3, 19]: 20.8 µM
inhibition at 25 µM [3, 20]: 98%
IC50 [4, 21]: 14.5 µM
IC90 [4, 22]: 20 µM
inhibition at 25 µM [5]: 25%
CC50 ([6]; GFP-ZEBOV CC50 (μM)): 40 µM
CC50 [7]: 54 µM

FC(F)C(F)(F)C1=Nc2ccccc2N=C(c2ccccc2)C1 [Compound G]
inhibition, added at time 0 at 0° C. ("binding") [8]: > 75%
Inhibition of pseudotype virus at 25 μM in 293T cells (%) HIV/EBOV-GP ([3]; 25 μM): 96%
IC90 ([3]; read-out: HIV/EBOV-GP IC90): 12.1 µM
IC90 ([3]; read-out: HIV/EBOV-Gp IC90): 12.1 µM
IC50 ([3]; read-out: IC50): 12.1 µM
IC90 ([3]; read-out: IC90 (μM) against HIV/EBOV-GP): 20.1 µM
IC90 ([9]; read-out: HIV/MARV-GP IC90): 10 µM
GFP-ZEBOV percentage in parentheses beside IC90 >25 [4]: >25 (70%)
IC50 ([4]; read-out: GFP-ZEBOV IC50): 10 µM
IC90 ([4]; read-out: GFP-ZEBOV IC90): > 25 µM
IC50 ([4]; read-out: Infectious EBOV IC50): 10 µM
Inhibition of pseudotype virus at 25 μM in 293T cells (%) HIV/VSV-GP ([5]; 25 μM): 20%
IC90 ([10]; read-out: HIV/LASV-GP IC90): > 50 µM
IC90 ([11]; read-out: HIV/HA (H5) IC90): > 50 µM
CC50 [12]: 75 µM

O=[N+]([O-])c1cccc(C2=Nc3ccccc3N=C(c3ccccc3O)C2)c1 [Compound G12]
IC50 [3, 20]: > 100 µM

CCCN(C)c1c([N+](=O)[O-])cc([N+](=O)[O-])c2cccnc12 [A, 5,7-dinitro-8-[methyl(propyl)amino]quinoline]
IC90 [3, 18]: 18.4 µM
IC90 [3, 19]: 18.4 µM
inhibition at 25 µM [3, 20]: 98%
IC50 [4, 21]: 7.5 µM
IC90 [4, 22]: 10 µM
inhibition at 25 µM [5]: 25%
CC50 ([6]; GFP-ZEBOV CC50 (μM)): 15 µM
CC50 [7]: 30 µM

Oc1ccc(Cl)cc1C1=Nc2ccccc2N=C(c2ccco2)C1 [Compound G9]
IC50 [3, 20]: > 100 µM

Oc1ccccc1C1=Nc2ccccc2N=C(c2cccs2)C1 [Compound G8]
IC50 [3, 20]: > 100 µM

COc1ccc(O)c(C2=Nc3ccccc3N=C(c3cccs3)C2)c1 [Compound G10]
IC50 [3, 20]: > 100 µM

Cc1cc2c(cc1C)N=C(C(F)(F)F)CC(c1ccc(Cl)cc1)=N2 [Compound G2]
IC50 [3, 20]: 72.1 µM

CCCNC(=O)[C@H]1O[C@@H]1C(=O)N[C@H](C(=O)N1CCC[C@H]1C(=O)O)[C@@H](C)CC [CA-074]
inhibition of HIV/VSV-G infectivity [13]: not
inhibition of HIV/EBOV-GP infection [14]: strongly inhibited

Nc1nccc2c1ncn2[C@@H]1C[C@H](CO)[C@@H](O)[C@H]1O [C-c3Ado, carbocyclic adenosine analog 3-deazaadenosinc]
IC50 [15]: 30 µM

O=c1c2ccccc2nc(/C=C/c2ccc([N+](=O)[O-])o2)n1-c1cccc(C(F)(F)F)c1 [D]
inhibition at 10 µM [16, 23]: > 75%
IC90 [3, 18]: 1.1 µM
IC90 [3, 19]: 1.1 µM
inhibition at 25 µM [3, 20]: 100%
GFP-ZEBOV percentage in parentheses beside IC90 >25 [4]: >25 (85%)
IC50 [4, 21]: 15.5 µM
IC90 [4, 22]: > 25 µM
inhibition at 25 µM [5]: 15%
CC50 [17]: 62.5 µM
CC50 ([6]; GFP-ZEBOV CC50 (μM)): > 50 µM
CC50 [7]: 30 µM

FC(F)(F)C(F)(F)C1=Nc2ccccc2N=C(c2ccccc2)C1 [Compound G3]
IC50 [3, 20]: 70.9 µM

Cc1ccc(N(c2ccc(C)cc2)c2cccnc2)cc1 [H]
IC90 [3, 18]: 23.5 µM
IC90 [3, 19]: 23.5 µM
inhibition at 25 µM [3, 20]: 100%
GFP-ZEBOV percentage in parentheses beside IC90 >25 [4]: >25 (59%)
IC50 [4, 21]: 20 µM
IC90 [4, 22]: > 25 µM
inhibition at 25 µM [5]: 30%
CC50 ([6]; GFP-ZEBOV CC50 (μM)): 22.6 µM
CC50 [7]: > 50 µM

COc1cccc(C(CC(=O)c2ccc(Cl)cc2)C(C#N)C#N)c1 (centres unmarked) [B]
inhibition at 10 µM [16, 24]: > 75%
IC90 [3, 18]: 7.6 µM
IC90 [3, 19]: 7.6 µM
inhibition at 25 µM [3, 20]: 100%
IC50 [4, 21]: 10 µM
IC90 [4, 22]: 20 µM
inhibition at 25 µM [5]: 10%
CC50 [17]: 51.5 µM
CC50 ([6]; GFP-ZEBOV CC50 (μM)): > 50 µM
CC50 [7]: 25 µM

CC[C@@]1(O)C(=O)OCc2c1cc1n(c2=O)Cc2cc3ccccc3nc2-1 [C]
inhibition at 10 µM [16, 24]: > 75%
IC90 [3, 18]: 0.8 µM
IC90 [3, 19]: 0.8 µM
inhibition at 25 µM [3, 20]: 98%
IC50 [4, 21]: 10 µM
IC90 [4, 22]: 23.5 µM
inhibition at 25 µM [5]: 0%
CC50 ([6]; GFP-ZEBOV CC50 (μM)): 29.5 µM
CC50 [7]: 20 µM

COc1ccc(O)c(C2=Nc3ccccc3N=C(C(F)(F)F)C2)c1 [Compound G7]
IC50 [3, 20]: 85.7 µM

COc1ccc(OC)c(NC(=O)CC(c2ccc(OC)cc2OC)S(=O)(=O)c2ccccc2)c1 (centres unmarked) [I]
activity when added after virus infection (+1 h) ("fusion") [8]: active
IC90 [3, 25]: 2.7 µM
IC90 [9, 26]: 2.8 µM
IC50 [4, 27]: 4.6 µM
IC90 [10, 28]: > 50 µM
IC90 [11, 29]: > 50 µM
CC50 ([6]; Infectious EBOV CC50 (μM)): 40 µM
CC50 [7]: 32 µM

CCOc1ccc(NC(=O)CSc2nnc(COc3cccc(N(C)C)c3)n2-c2ccccc2)cc1 [K]
activity when added after virus infection (+1 h) ("fusion") [8]: active
selectivity index, third value column of Table 7 (head only in drawing) [3]: 39
IC90 [3, 25]: 2 µM
IC50 ([3]; Human immunodeficiency virus 1, HEK-293T, read-out: antiviral potency, first value column of Table 7 (head only in drawing)): 2.5 µM
IC90 [9, 26]: 11 µM
IC50 [4, 27]: 2.5 µM
IC90 [10, 28]: > 50 µM
IC90 [11, 29]: > 50 µM
CC50 ([6]; Infectious EBOV CC50 (μM)): 50 µM
cytotoxicity, second value column of Table 7 (head only in drawing) ([12]; human): 98
CC50 [7]: 98 µM

N=c1c2c(-c3ccccc3)c(-c3ccccc3)n(Cc3ccco3)c2ncn1CCCn1ccnc1 [F]
inhibition at 10 µM [16, 23]: > 75%
IC90 [3, 18]: 10.9 µM
IC90 [3, 19]: 10.9 µM
inhibition at 25 µM [3, 20]: 98%
GFP-ZEBOV percentage in parentheses beside IC90 >25 [4]: >25 (78%)
IC50 [4, 21]: 15 µM
IC90 [4, 22]: > 25 µM
inhibition at 25 µM [5]: 20%
CC50 ([6]; GFP-ZEBOV CC50 (μM)): 48.5 µM
CC50 [7]: 25 µM

CC1=CC(c2ccccc2)=Nc2cc3ccccc3cc2N1 [Compound G1]
IC50 [3, 20]: 88.3 µM

Oc1ccccc1C1=Nc2ccccc2N=C(C(F)(F)F)C1 [Compound G5]
IC50 [3, 20]: 70.7 µM

Cc1ccc(C2=Nc3ccccc3N=C(C(F)(F)F)C2)cc1 [Compound G6]
IC50 [3, 20]: 75.7 µM

Oc1ccccc1C1=Nc2ccccc2N=C(c2ccco2)C1 [Compound G11]
IC50 [3, 20]: > 100 µM

FC(F)(F)C(F)(F)C1=Nc2cc(Cl)c(Cl)cc2N=C(c2ccccc2)C1 [Compound G4]
IC50 [3, 20]: 3.7 µM
